Patent US12655116B2, “Substituted isophthalic acid diamides” (Bayer Aktiengesellschaft, priority 2020, dated 2026)

What was measured:
ABUTH [1] = assay: Pre-emergence herbicidal action against ABUTH; type: in vivo, Abutilon theophrasti
Summary of the method: (§1)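 Sandy loam pots, seeds covered with soil, then surface-treated with WP or EC formulations at 600–800 l/ha water plus 0.2% wetting agent. Greenhouse, 3 weeks. Percent damage vs untreated controls.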

ALOMY [2] = assay: Pre-emergence herbicidal action against ALOMY; type: in vivo, Alopecurus myosuroides; details: 80 g/ha, pre-emergence, scored visually after 3 weeks vs untreated controls (100% = plants have died, 0% = like control plants)
Summary of the method: as §1

AMARE [3] = assay: Pre-emergence herbicidal action against AMARE; type: in vivo, Amaranthus retroflexus
Summary of the method: as §1

AVEFA [4] = assay: Pre-emergence herbicidal action against AVEFA; type: in vivo, Avena fatua; details: 80 g/ha, pre-emergence
Summary of the method: as §1

ECHCG [5] = assay: Pre-emergence herbicidal action against ECHCG; type: in vivo, Echinochloa crus-galli; details: 80 g/ha
Summary of the method: as §1

MATIN [6] = assay: Pre-emergence herbicidal action against MATIN; type: in vivo, Matricaria inodora
Summary of the method: as §1

PHBPU [7] = assay: Pre-emergence herbicidal action against PHBPU; type: in vivo, Pharbitis purpurea
Summary of the method: as §1

POLCO = assay: Pre-emergence herbicidal action against POLCO; type: in vivo, Polygonum convolvulus; details: dosage 80 g/ha
Summary of the method: as §1

SETVI [8] = assay: Pre-emergence herbicidal action against SETVI; type: in vivo, Setaria viridis; details: dosage 80 g/ha
Summary of the method: as §1

VERPE [9] = assay: Pre-emergence herbicidal action against VERPE; type: in vivo, Veronica persica; details: dosage 80 g/ha
Summary of the method: as §1

VIOTR [10] = assay: Pre-emergence herbicidal action against VIOTR; type: in vivo, Viola tricolor
Summary of the method: as §1

ABUTH [11] = assay: Post-emergence herbicidal action against ABUTH; type: in vivo, Abutilon theophrasti; details: visual assessment about 3 weeks after treatment vs untreated controls
Summary of the method: (§2)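 Visual % rating (0% = as untreated, 100% = dead) ~3 wk after spraying one-leaf-stage plants grown in sandy loam; WP/EC in water at 600–800 l/ha, 0.2% wetting agent.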

ALOMY [12] = assay: Post-emergence herbicidal action against ALOMY; type: in vivo, Alopecurus myosuroides; details: dosage 20 g/ha, visual assessment about 3 weeks after treatment vs untreated controls
Summary of the method: as §2

AMARE [13] = assay: Post-emergence herbicidal action against AMARE; type: in vivo, Amaranthus retroflexus; details: 20 g/ha, visual assessment about 3 weeks after treatment, 100% = plants have died, 0% = like control plants
Summary of the method: as §2

AVEFA [14] = assay: Post-emergence herbicidal action against AVEFA; type: in vivo, Avena fatua; details: 20 g/ha, visual assessment about 3 weeks after treatment, 100% = plants have died, 0% = like control plants
Summary of the method: as §2

ECHCG [15] = assay: Post-emergence herbicidal action against ECHCG; type: in vivo, Echinochloa crus-galli
Summary of the method: as §2

MATIN [16] = assay: Post-emergence herbicidal action against MATIN; type: in vivo, Matricaria inodora
Summary of the method: as §2

PHBPU [17] = assay: Post-emergence herbicidal action against PHBPU; type: in vivo, Pharbitis purpurea
Summary of the method: as §2

SETVI [18] = assay: Post-emergence herbicidal action against SETVI; type: in vivo, Setaria viridis
Summary of the method: as §2

VIOTR [19] = assay: Post-emergence herbicidal action against VIOTR; type: in vivo, Viola tricolor
Summary of the method: as §2

DIGSA [20] = assay: Post-emergence herbicidal action against DIGSA; type: in vivo, Digitaria sanguinalis
Summary of the method: as §2

DIGSA [21] = assay: Pre-emergence herbicidal action against DIGSA; type: in vivo, Digitaria sanguinalis; details: Digitaria sanguinalis, 504 h
Summary of the method: as §1

VERPE [22] = assay: Post-emergence herbicidal action against VERPE; type: in vivo, Veronica persica; details: Veronica persica, 504 h
Summary of the method: as §2

[23] = 80 g/ha, scored visually after 3 weeks vs untreated controls (100% = plants have died, 0% = like control plants)
[24] = Tripleurospermum inodorum, 504 h, dosage 20 g/ha
[25] = Ipomoea purpurea, 504 h, dosage 20 g/ha

CCNC(=O)c1c(C(F)(F)F)ccc(C(=O)Nc2nnnn2CC)c1CC [Example 2-272]
Pre-emergence action against ABUTH (herbicidal activity) (ABUTH [1]; [23]): 100% | Pre-emergence action against ABUTH (herbicidal activity in percent) (ABUTH [1]; dosage 20 g/ha, scored visually after 3 weeks vs untreated controls, 100% = plants have died, 0% = like control plants): 100% | Pre-emergence action against ALOMY (herbicidal activity) (ALOMY [2]): 90% | Pre-emergence action against AMARE in % (AMARE [3]; 20 g/ha, scored visually after 3 weeks vs untreated controls, 100% = plants have died, 0% = like control plants): 100% | Pre-emergence action against AMARE in % (AMARE [3]; [23]): 100% | Pre-emergence action against AVEFA in % (AVEFA [4]): 80% | Pre-emergence action against ECHCG in % (ECHCG [5]): 100% | Pre-emergence action against MATIN in % (MATIN [6]; dosage 20 g/ha): 100% | Pre-emergence action against MATIN in % (MATIN [6]; dosage 80 g/ha): 100% | Pre-emergence action against PHBPU in % (PHBPU [7]; dosage 80 g/ha): 80% | Pre-emergence action against POLCO in % (POLCO): 80% | Pre-emergence action against SETVI in % (SETVI [8]): 100% | Pre-emergence action against VERPE in % (VERPE [9]): 90% | Pre-emergence action against VIOTR in % (VIOTR [10]; dosage 20 g/ha): 90% | Pre-emergence action against VIOTR in % (VIOTR [10]; dosage 80 g/ha): 100% | Post-emergence action against ABUTH in % (ABUTH [11]; dosage 5 g/ha): 90% | Post-emergence action against ABUTH in % (ABUTH [11]; dosage 20 g/ha): 90% | Post-emergence action against ALOMY in % (ALOMY [12]): 90% | Post-emergence action at 20 g/ha against AMARE in % (AMARE [13]): 100% | Post-emergence action at 20 g/ha against AVEFA in % (AVEFA [14]): 80% | Post-emergence action against ECHCG in % (ECHCG [15]; dosage 5 g/ha): 80% | Post-emergence action against ECHCG in % (ECHCG [15]; dosage 20 g/ha): 90% | Post-emergence action against MATIN in % (MATIN [16]; dosage 5 g/ha): 80% | Post-emergence action against MATIN in % (MATIN [16]; dosage 20 g/ha): 80% | Post-emergence action against PHBPU in % (PHBPU [17]; dosage 5 g/ha): 90% | Post-emergence action against PHBPU in % (PHBPU [17]; dosage 20 g/ha): 100% | Post-emergence action against SETVI in % (SETVI [18]; dosage 5 g/ha): 90% | Post-emergence action against SETVI in % (SETVI [18]; dosage 20 g/ha): 100% | Post-emergence action against VIOTR in % (VIOTR [19]; 20 g/ha): 80% | Post-emergence action against DIGSA in % (DIGSA [20]; 5 g/ha): 90% | Post-emergence action against DIGSA (DIGSA [20]; 20 g/ha): 90%

CCc1c(C(=O)Nc2nnnn2C)ccc(C(F)F)c1C(=O)NC [Example 1-277]
pest or weed control at 80 g/ha (ABUTH [1]; Abutilon theophrasti, 504 h, 80 g/ha, scored visually after 3 weeks vs untreated controls (100% = plants have died, 0% = like control plants)): 100% | pest or weed control at 20 g/ha (ABUTH [1]; Abutilon theophrasti, 504 h, dosage 20 g/ha, scored visually after 3 weeks vs untreated controls, 100% = plants have died, 0% = like control plants, read-out: Pre-emergence action against ABUTH (herbicidal activity in percent)): 90% | pest or weed control at 80 g/ha (ALOMY [2]; Alopecurus myosuroides, 504 h): 90% | pest or weed control at 20 g/ha (AMARE [3]; Amaranthus retroflexus, 504 h, 20 g/ha, scored visually after 3 weeks vs untreated controls, 100% = plants have died, 0% = like control plants): 100% | pest or weed control at 80 g/ha (AMARE [3]; Amaranthus retroflexus, 504 h, 80 g/ha, scored visually after 3 weeks vs untreated controls, 100% = plants have died, 0% = like control plants): 100% | pest or weed control at 80 g/ha (AVEFA [4]; Avena fatua, 504 h): 90% | pest or weed control at 80 g/ha (ECHCG [5]; Echinochloa crus-galli, 504 h): 90% | pest or weed control at 20 g/ha (MATIN [6]; [24]): 90% | pest or weed control at 80 g/ha (MATIN [6]; Tripleurospermum inodorum, 504 h, dosage 80 g/ha): 100% | pest or weed control at 20 g/ha (PHBPU [7]; [25]): 80% | pest or weed control at 80 g/ha (PHBPU [7]; Ipomoea purpurea, 504 h, dosage 80 g/ha): 90% | pest or weed control at 80 g/ha (POLCO; Fallopia convolvulus, 504 h): 90% | pest or weed control at 80 g/ha (SETVI [8]; Setaria viridis, 504 h): 100% | pest or weed control at 80 g/ha (VERPE [9]; Veronica persica, 504 h): 90% | pest or weed control at 20 g/ha (VIOTR [10]; Viola tricolor, 504 h, dosage 20 g/ha): 100% | pest or weed control at 80 g/ha (VIOTR [10]; Viola tricolor, 504 h, dosage 80 g/ha): 100% | pest or weed control at 20 g/ha (DIGSA [21]; dosage 20 g/ha): 100% | pest or weed control at 80 g/ha (DIGSA [21]; dosage 80 g/ha): 100% | pest or weed control at 5 g/ha (ABUTH [11]; Abutilon theophrasti, 504 h, dosage 5 g/ha): 90% | pest or weed control at 20 g/ha (ABUTH [11]; Abutilon theophrasti, 504 h, dosage 20 g/ha): 90% | pest or weed control at 20 g/ha (AMARE [13]; Amaranthus retroflexus, 504 h): 100% | pest or weed control at 20 g/ha (AVEFA [14]; Avena fatua, 504 h): 80% | pest or weed control at 20 g/ha (ECHCG [15]; Echinochloa crus-galli, 504 h, dosage 20 g/ha): 90% | pest or weed control at 5 g/ha (MATIN [16]; Tripleurospermum inodorum, 504 h, dosage 5 g/ha): 90% | pest or weed control at 20 g/ha (MATIN [16]; [24]): 90% | pest or weed control at 5 g/ha (PHBPU [17]; Ipomoea purpurea, 504 h, dosage 5 g/ha): 90% | pest or weed control at 20 g/ha (PHBPU [17]; [25]): 90% | pest or weed control at 5 g/ha (SETVI [18]; Setaria viridis, 504 h, dosage 5 g/ha): 90% | pest or weed control at 20 g/ha (SETVI [18]; Setaria viridis, 504 h, dosage 20 g/ha): 90% | pest or weed control at 5 g/ha (VERPE [22]; 5 g/ha): 80% | pest or weed control at 20 g/ha (VERPE [22]; 20 g/ha): 90% | pest or weed control at 5 g/ha (VIOTR [19]; Viola tricolor, 504 h, 5 g/ha): 80% | pest or weed control at 20 g/ha (VIOTR [19]; Viola tricolor, 504 h, 20 g/ha): 90% | pest or weed control at 5 g/ha (DIGSA [20]; Digitaria sanguinalis, 504 h, 5 g/ha): 90% | pest or weed control at 20 g/ha (DIGSA [20]; Digitaria sanguinalis, 504 h, 20 g/ha): 90%
